Test results from US20220054478A1, “MINIMIZATION OF SYSTEMIC INFLAMMATION” (Ascendis Pharma Oncology Division A/S, priority 2019, published 2022).

Set-up: species or system WISTAR rats
Settings: rat, in vivo, sc, 25 ug
Text: Hydrogels were suspended (ca. 6% wt/v) PBST buffer at pH 7.4. […] Blood samples were withdrawn and used for plasma generation over the course of 28 d. […] Plasma concentration profiles were generated and analyzed with Phoenix WinNonlin software (Certara, Princeton, N.J., USA).

t1/2 (biphasic), first phase: 1.5 h | t1/2 (biphasic), second phase: 10 h
Substance: Resiquimod [Compound 4]
